Data reported in patent publication US20170050957A1, “4-AMINO-6-(HETEROCYCLIC)PICOLINATES AND 6-AMINO-2-(HETEROCYCLIC)PYRIMIDINE-4-CARBOXYLATES AND THEIR USE AS HERBICIDES” (Dow AgroSciences LLC, priority 2013, published 2017).
Where two headings read alike, the source gives them in different places.

Assays:
[1] = system: Key Grass and Sedge Weeds as well as Grass Crops; test: Post-emergent Test II herbicidal activity (Table 16); assay type: in vivo; details: post-emergence, 336 h, 14 d; for pest or weed control at 35 g/ha: 35 g ai/ha; for pest or weed control at 70 g/ha: 70 g ai/ha; for pest or weed control at 140 g/ha: 140 g ai/ha
Procedure, shortened: (§1)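 Herbicidal effect scored as percent visual injury, 14 d after post-emergent application. Spray solutions contained acetone, DMSO, isopropyl alcohol, crop oil concentrate and surfactant, applied at 187 L/ha to young plants (1-2 true leaves).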

[2] = system: Key Broadleaf Weed and Crop Species; test: Post-emergent Test II herbicidal activity (Table 15); assay type: in vivo; details: post-emergence, 336 h, 14 d; for pest or weed control at 35 g/ha: 35 g ai/ha; for pest or weed control at 70 g/ha: 70 g ai/ha; for pest or weed control at 140 g/ha: 140 g ai/ha
Procedure, shortened: as §1

[3] = Cyperus esculentus, yellow nutsedge (Cyperus esculentus), read-out: Visual Growth Reduction (%) 14 Days After Application, CYPES
[4] = Echinochloa crus-galli, barnyardgrass (Echinochloa crus-galli), read-out: Visual Growth Reduction (%) 14 Days After Application, ECHCG
[5] = Oryza sativa, rice (Oryza sativa), read-out: Visual Growth Reduction (%) 14 Days After Application, ORYSA
[6] = Setaria faberi, giant foxtail (Setaria faberi), read-out: Visual Growth Reduction (%) 14 Days After Application, SETFA
[7] = Triticum aestivum, wheat, spring (Triticum aestivum), read-out: Visual Growth Reduction (%) 14 Days After Application, TRZAS
[8] = Zea mays, maize, corn (Zea mays), read-out: Visual Growth Reduction (%) 14 Days After Application, ZEAMX
[9] = Abutilon theophrasti, velvetleaf (Abutilon theophrasti), read-out: Visual Growth Reduction (%) 14 Days After Application, ABUTH
[10] = Amaranthus retroflexus, redroot pigweed (Amaranthus retroflexus), read-out: Visual Growth Reduction (%) 14 Days After Application, AMARE
[11] = Brassica napus, oilseed rape, canola (Brassica napus), read-out: Visual Growth Reduction (%) 14 Days After Application, BRSNN
[12] = Chenopodium album, lambsquarters (Chenopodium album), read-out: Visual Growth Reduction (%) 14 Days After Application, CHEAL
[13] = Euphorbia heterophylla, wild poinsettia (Euphorbia heterophylla), read-out: Visual Growth Reduction (%) 14 Days After Application, EPHHL
[14] = Helianthus annuus, sunflower (Helianthus annuus), read-out: Visual Growth Reduction (%) 14 Days After Application, HELAN

Nc1cc(-c2ccc3cc[nH]c3c2)nc(C(=O)O)c1Cl [Compound 1.22] gave a pest or weed control at 35 g/ha [1, 3] of 0 to 29%, a pest or weed control at 70 g/ha [1, 3] of 0 to 29% and a pest or weed control at 140 g/ha [1, 3] of 0 to 29%. It also gave a pest or weed control at 35 g/ha [1, 4] of 0 to 29%, a pest or weed control at 70 g/ha [1, 4] of 0 to 29% and a pest or weed control at 140 g/ha [1, 4] of 0 to 29%. It also gave a pest or weed control at 35 g/ha [1, 5] of 0 to 29%, a pest or weed control at 70 g/ha [1, 5] of 0 to 29% and a pest or weed control at 140 g/ha [1, 5] of 0 to 29%. It also gave a pest or weed control at 35 g/ha [1, 6] of 0 to 29%, a pest or weed control at 70 g/ha [1, 6] of 60 to 74% and a pest or weed control at 140 g/ha [1, 6] of 85 to 94%. It also gave a pest or weed control at 35 g/ha [1, 7] of 0 to 29%, a pest or weed control at 70 g/ha [1, 7] of 0 to 29% and a pest or weed control at 140 g/ha [1, 7] of 0 to 29%. It also gave a pest or weed control at 35 g/ha [1, 8] of 0 to 29%, a pest or weed control at 70 g/ha [1, 8] of 0 to 29% and a pest or weed control at 140 g/ha [1, 8] of 0 to 29%. For the same compound, the pest or weed control at 35 g/ha [2, 9] was 0 to 29%, the pest or weed control at 70 g/ha [2, 9] was 0 to 29% and the pest or weed control at 140 g/ha [2, 9] was 0 to 29%. The pest or weed control at 35 g/ha [2, 10] was 75 to 84%, the pest or weed control at 70 g/ha [2, 10] was 75 to 84% and the pest or weed control at 140 g/ha [2, 10] was 85 to 94%. It also gave a pest or weed control at 35 g/ha [2, 11] of 45 to 59%, a pest or weed control at 70 g/ha [2, 11] of 60 to 74% and a pest or weed control at 140 g/ha [2, 11] of 60 to 74%. The pest or weed control at 35 g/ha [2, 12] was 0 to 29%, the pest or weed control at 70 g/ha [2, 12] was 0 to 29% and the pest or weed control at 140 g/ha [2, 12] was 0 to 29%. For the same compound, the pest or weed control at 35 g/ha [2, 13] was 45 to 59%, the pest or weed control at 70 g/ha [2, 13] was 75 to 84% and the pest or weed control at 140 g/ha [2, 13] was 85 to 94%. The pest or weed control at 35 g/ha [2, 14] was 75 to 84%, the pest or weed control at 70 g/ha [2, 14] was 85 to 94% and the pest or weed control at 140 g/ha [2, 14] was 85 to 94%. For the same compound, the melting point was 172 to 174 °C.
With Cc1c(-c2ccc3cc[nH]c3c2)nc(C(=O)O)c(Cl)c1N [Compound 1.29] the pest or weed control at 35 g/ha [1, 3] was 0 to 29%, the pest or weed control at 70 g/ha [1, 3] was 0 to 29% and the pest or weed control at 140 g/ha [1, 3] was 30 to 44%. For the same compound, the pest or weed control at 35 g/ha [1, 4] was 0 to 29%, the pest or weed control at 70 g/ha [1, 4] was 0 to 29% and the pest or weed control at 140 g/ha [1, 4] was 0 to 29%. The pest or weed control at 35 g/ha [1, 5] was 0 to 29%, the pest or weed control at 70 g/ha [1, 5] was 0 to 29% and the pest or weed control at 140 g/ha [1, 5] was 0 to 29%. For the same compound, the pest or weed control at 35 g/ha [1, 6] was 0 to 29%, the pest or weed control at 70 g/ha [1, 6] was 0 to 29% and the pest or weed control at 140 g/ha [1, 6] was 0 to 29%. For the same compound, the pest or weed control at 35 g/ha [1, 7] was 0 to 29%, the pest or weed control at 70 g/ha [1, 7] was 0 to 29% and the pest or weed control at 140 g/ha [1, 7] was 0 to 29%. It also gave a pest or weed control at 35 g/ha [1, 8] of 0 to 29%, a pest or weed control at 70 g/ha [1, 8] of 0 to 29% and a pest or weed control at 140 g/ha [1, 8] of 0 to 29%. It also gave a pest or weed control at 35 g/ha [2, 9] of 0 to 29%, a pest or weed control at 70 g/ha [2, 9] of 0 to 29% and a pest or weed control at 140 g/ha [2, 9] of 0 to 29%. The pest or weed control at 35 g/ha [2, 10] was 45 to 59%, the pest or weed control at 70 g/ha [2, 10] was 0 to 29% and the pest or weed control at 140 g/ha [2, 10] was 0 to 29%. For the same compound, the pest or weed control at 35 g/ha [2, 11] was 75 to 84%, the pest or weed control at 70 g/ha [2, 11] was 75 to 84% and the pest or weed control at 140 g/ha [2, 11] was 85 to 94%. It also gave a pest or weed control at 35 g/ha [2, 12] of 45 to 59%, a pest or weed control at 70 g/ha [2, 12] of 45 to 59% and a pest or weed control at 140 g/ha [2, 12] of 75 to 84%. The pest or weed control at 35 g/ha [2, 13] was 0 to 29%, the pest or weed control at 70 g/ha [2, 13] was 0 to 29% and the pest or weed control at 140 g/ha [2, 13] was 0 to 29%. It also gave a pest or weed control at 35 g/ha [2, 14] of 60 to 74%, a pest or weed control at 70 g/ha [2, 14] of 60 to 74% and a pest or weed control at 140 g/ha [2, 14] of 75 to 84%. The melting point was 168 to 175 °C.
